Several values for one entry are separate records, joined by “and”; a condition that tells them apart may be missing. Identical values can stand only once.
Tests used:
Format in all cases: in vivo
Aphis gossypii = assay: translaminar test (3 day assessment time) against Aphis gossypii; conditions: 0.5% BEOP, no insecticide
Source text: The activity of thiamethoxam as Actara 25WG with bis(2-ethylhexyl) octyl phosphonate (BEOP) at 0.5% was compared with Actara containing no bis(2-ethylhexyl) octyl phosphonate in a translaminar test (3 day assessment time) against Aphis gossypii. The results are set out in Table 4 and show % control.

[1] = test system: L1/L2 Liriomyza huidobriensis, leaf miner; assay: curative control of L1/L2 leaf miner within bean leaves; conditions: for % control, Alone: no BEEP; for % control, +BEEP: with 0.5% BEEP
Source text: The activity of a range of insecticides combined with 0.5% bis(2-ethylhexyl)-2-ethylhexyl phosphonate (BEEP) was compared with a corresponding formulation containing no bis(2-ethylhexyl)-2-ethylhexyl phosphonate in a test of curative control of L1/L2 Liriomyza huidobriensis, leaf miner. The results are set out in Table 1 and show % control of this leaf miner within bean leaves.

Plutella xylostella = assay: feeding/contact test against Plutella xylostella; conditions: for % control, Alone: no BEEP; for % control, +BEEP: with 0.5% BEEP
Source text: The activity of lambda-cyhalothrin, profenofos and indoxacarb combined with 0.5% bis(2-ethylhexyl)-2-ethylhexyl phosphonate (BEEP) was compared with a corresponding formulation containing no bis(2-ethylhexyl)-2-ethylhexyl phosphonate in a feeding/contact test against Plutella xylostella. The results are set out in Table 2 and show % control.

R2 Myzus persicae = assay: translaminar test (3 day assessment time) against R2 Myzus persicae; conditions: 0.5% BEEP, no insecticide
Source text: The activity of lambda-cyhalothrin, as Karate 10CS with 0.5% bis(2-ethylhexyl)-2-ethylhexyl phosphonate (BEEP) was compared with a Karate 10CS containing no bis(2-ethylhexyl)-2-ethylhexyl phosphonate in a translaminar test (3 day assessment time) against R2 Myzus persicae. The results are set out in Table 3 and show % control.

CCCCCCCCP(=O)(OCC(CC)CCCC)OCC(CC)CCCC (stereo not shown) [BEOP, bis(2-ethylhexyl) octyl phosphonate]
% control, Control +BEOP (Aphis gossypii): 3%

N#Cc1nn(-c2c(Cl)cc(C(F)(F)F)cc2Cl)c(N)c1[S+]([O-])C(F)(F)F (stereo not shown) [Fipronil]
% control, Alone ([1]; 400 ppm): 60% | % control, +BEEP ([1]; 400 ppm): 100% | % control, Alone ([1]; 600 ppm): 69% | % control, +BEEP ([1]; 600 ppm): 100% | % control, Alone ([1]; 800 ppm): 66% | % control, +BEEP ([1]; 800 ppm): 100% | % control, Alone ([1]; 1000 ppm): 83% | % control, +BEEP ([1]; 1000 ppm): 100%

CC1(C)[C@H](C(=O)O[C@H](C#N)c2cccc(Oc3ccccc3)c2)[C@@H]1/C=C(\Cl)C(F)(F)F (racemic) [Lambda-cyhalothrin]
% control, Alone (Plutella xylostella; 0.31 ppm): 54% | % control, +BEEP (Plutella xylostella; 0.31 ppm): 100% | % control, Alone (Plutella xylostella; 0.63 ppm): 66% | % control, +BEEP (Plutella xylostella; 0.63 ppm): 100% | % control, Alone (Plutella xylostella; 1.25 ppm): 83% | % control, +BEEP (Plutella xylostella; 1.25 ppm): 100% | % control, Alone (Plutella xylostella; 2.5 ppm): 95% | % control, +BEEP (Plutella xylostella; 2.5 ppm): 100%

CCCCC(CC)COP(=O)(CC(CC)CCCC)OCC(CC)CCCC (stereo not shown) [BEEP, bis(2-ethylhexyl)-2-ethylhexyl phosphonate]
% control, Control +BEEP (R2 Myzus persicae): 4% | % control, Control +BEEP (Plutella xylostella; 0.5% BEEP, no insecticide): 11% and 20% | % control, Control +BEEP ([1]; 0.5% BEEP, no insecticide): 0%

COC(=O)N(C(=O)N1CO[C@@]2(C(=O)OC)Cc3cc(Cl)ccc3C2=N1)c1ccc(OC(F)(F)F)cc1 [Indoxacarb]
% control, Alone (Plutella xylostella; 0.16 ppm): 32% | % control, +BEEP (Plutella xylostella; 0.16 ppm): 57% | % control, Alone (Plutella xylostella; 0.31 ppm): 26% | % control, +BEEP (Plutella xylostella; 0.31 ppm): 80% | % control, Alone (Plutella xylostella; 0.63 ppm): 32% | % control, +BEEP (Plutella xylostella; 0.63 ppm): 98% | % control, Alone (Plutella xylostella; 1.25 ppm): 80% | % control, +BEEP (Plutella xylostella; 1.25 ppm): 100%

Abamectin
% control, Alone ([1]; 3.13 ppm): 27% | % control, +BEEP ([1]; 3.13 ppm): 99% | % control, Alone ([1]; 6.25 ppm): 48% | % control, +BEEP ([1]; 6.25 ppm): 100% | % control, Alone ([1]; 12.5 ppm): 74% | % control, +BEEP ([1]; 12.5 ppm): 100% | % control, Alone ([1]; 25 ppm): 96% | % control, +BEEP ([1]; 25 ppm): 100%

Nc1nc(N)nc(NC2CC2)n1 [cypromazine]
% control, Alone ([1]; 25 ppm): 27% | % control, +BEEP ([1]; 25 ppm): 28% | % control, Alone ([1]; 50 ppm): 57% | % control, +BEEP ([1]; 50 ppm): 83% | % control, Alone ([1]; 100 ppm): 81% | % control, +BEEP ([1]; 100 ppm): 100% | % control, Alone ([1]; 200 ppm): 100% | % control, +BEEP ([1]; 200 ppm): 100%

spinosad
% control, Alone ([1]; 400 ppm): 42% | % control, +BEEP ([1]; 400 ppm): 100% | % control, Alone ([1]; 600 ppm): 73% | % control, +BEEP ([1]; 600 ppm): 100% | % control, Alone ([1]; 800 ppm): 82% | % control, +BEEP ([1]; 800 ppm): 100% | % control, Alone ([1]; 1000 ppm): 81% | % control, +BEEP ([1]; 1000 ppm): 100%

CN1COCN(Cc2cnc(Cl)s2)/C1=N\[N+](=O)[O-] [thiamethoxam]
% control, Alone ([1]; 400 ppm): 0% | % control, +BEEP ([1]; 400 ppm): 20% | % control, Alone ([1]; 600 ppm): 0% | % control, +BEEP ([1]; 600 ppm): 43% | % control, Alone ([1]; 800 ppm): 0% | % control, +BEEP ([1]; 800 ppm): 63% | % control, Alone ([1]; 1000 ppm): 12% | % control, +BEEP ([1]; 1000 ppm): 68%

CCCSP(=O)(OCC)Oc1ccc(Br)cc1Cl (stereo not shown) [Profenofos]
% control, Alone (Plutella xylostella; 12.5 ppm): 16% | % control, +BEEP (Plutella xylostella; 12.5 ppm): 65% | % control, Alone (Plutella xylostella; 25 ppm): 41% | % control, +BEEP (Plutella xylostella; 25 ppm): 95% | % control, Alone (Plutella xylostella; 50 ppm): 95% | % control, +BEEP (Plutella xylostella; 50 ppm): 100% | % control, Alone (Plutella xylostella; 100 ppm): 100% | % control, +BEEP (Plutella xylostella; 100 ppm): 100%

CCOCn1c(-c2ccc(Cl)cc2)c(C#N)c(Br)c1C(F)(F)F [chlorfenpyr]
% control, Alone ([1]; 400 ppm): 0% | % control, +BEEP ([1]; 400 ppm): 100% | % control, Alone ([1]; 600 ppm): 15% | % control, +BEEP ([1]; 600 ppm): 100% | % control, Alone ([1]; 800 ppm): 0% | % control, +BEEP ([1]; 800 ppm): 100% | % control, Alone ([1]; 1000 ppm): 28% | % control, +BEEP ([1]; 1000 ppm): 100%
